From patent US12213483B1, “Herbicidal compositions comprising trifludimoxazin” (BASF SE, priority 2024, dated 2025)

Tests used:
Assay type in all cases: in vivo
[1] = test system: Commelina benghalensis (COMBE); experiment: Post-emergence application in greenhouse trials, COMBE
Protocol: (§1) In the examples below, using the method of S. R. Colby (1967) “Calculating synergistic and antagonistic responses of herbicide combinations”, Weeds 15, p. 22ff., the value E, which is expected if the activity of the individual active compounds is only additive, was calculated: E=X+Y−(X·Y/100) • where • X=percent activity using active herbicide A at an application rate a; • Y=percent activity using active trifludimoxazin at an application rate b; • E=expected activity (in %) by A+B at application rates a+b.
(§2) If the value found experimentally is higher than the value E calculated according to Colby, a synergistic effect is present.
(§3) The culture containers used were plastic pots containing loamy sand with approximately 3.0% of humus as substrate. The seeds of the test plants were sown separately for each species.
(§4) For the post-emergence treatment, the test plants were grown to a plant height of from 3 to 15 cm, depending on the plant habit, and only then treated with the active compounds which had been suspended or emulsified in water. To this end, the test plants were either sown directly, and grown in the same containers, or they were first grown separately as seedlings and transplanted into the test containers a few days prior to treatment.
(§5) Depending on the species, the plants were kept at 10-25° C. and 20-35° C., respectively.
(§6) The test period extended over 2 to 4 weeks. During this time, the plants were tended and their response to the individual treatments was evaluated.
(§7) Evaluation was carried out using a scale from 0 to 100. 100 means no emergence of the plants, or complete destruction of at least the above-ground parts, and 0 means no damage or normal course of growth. A good herbicidal activity is given at values of at least 70, and very good herbicidal activity is given at values of at least 85.
(§8) In the greenhouse trials, unless indicated otherwise, herbicide A, trifludimoxazin and saflufenacil were formulated (50 g/I) and applied with addition of 1% MSO (methylated seed oil) as adjuvant. The solvent used was water (200 I/ha).

[2] = test system: Echinocloa crus-galli (ECHCG); experiment: Post-emergence application in greenhouse trials, ECHCG; conditions: GS 13
Protocol: as §1, §2, §3, §4, §5, §6, §7, §8

Setaria faberi (SETFA) = experiment: Post-emergence application in greenhouse trials, SETFA; conditions: GS 13
Protocol: as §1, §2, §3, §4, §5, §6, §7, §8

Setaria viridis (SETVI) = experiment: Post-emergence application in greenhouse trials, SETVI
Protocol: as §1, §2, §3, §4, §5, §6, §7, §8

[3] = test system: Sorghum halapense (SORHA); experiment: Post-emergence application in greenhouse trials, SORHA
Protocol: as §1, §2, §3, §4, §5, §6, §7, §8

[4] = test system: Erigeron canadensis (ERICA); experiment: Post-emergence application in greenhouse trials, ERICA; conditions: 20 DAT, GS 19
Protocol: as §1, §2, §3
as §4, with “treatment. […]” for “treatment.”
The test period extended over 2 to 4 weeks. During this time, the plants were tended and their response to the individual treatments was evaluated. […]

[5] = test system: Lolium multiflorum (LOLMU); experiment: Post-emergence application in greenhouse trials, LOLMU; conditions: 20 DAT
Protocol: as §1, §2, §3, §4, §5, §6, §7, §8

[6] = test system: Amaranthus palmeri (AMAPA); experiment: Post-emergence application in field trials, AMAPA; conditions: 21 DAT, water volume 200 l/ha, 0.25 l/ha Dash MSO Max, pre plant burndown, height 30 cm
Protocol: as §1, §2
(§9) On field test sites, natural weed infestation or seeded weeds were treated post-emergence of the weeds.
(§10) In the field trials, the weedy plants were treated as indicated below.
(§11) Herbicide A-1 (342 g/I), trifludimoxazin (500 g/I) and saflufenacil (342 g/I) were, together with addition of 1% MSO (methylated seed oil) as adjuvant (unless indicated otherwise), formulated in water as distribution medium as indicated and sprayed with commercial flat fan nozzles.
(§12) In the following experiments, the herbicidal activity for the individual herbicidal compositions (solo and mixture applications) was assessed at the indicated days after treatment (DAT). The assessments for the damage on undesired weeds caused by the composition was carried out using a scale from 0 to 100%, compared to the untreated control plants. Here, 0 means no damage and 100 means complete destruction of the plants.
(§13) Herbicide A-1 (100 g/l) and trifludimoxazin (500 g/l) were, together with addition of 1% MSO (methylated seed oil) as adjuvant (unless indicated otherwise), formulated in water as distribution medium as indicated and sprayed with commercial flat fan nozzles.

[7] = test system: Spermacoce latifolia (BOIFL); experiment: Post-emergence application in field trials, BOIFL; conditions: 8 DAT, water volume 200 l/ha, growth stage 12-16, height 3-10 cm
Protocol: as §1, §2, §9, §10, §11, §12, §13

[8] = test system: Senna obtusifolia (CASOB); experiment: Post-emergence application in field trials, CASOB; conditions: 43 DAT, water volume 200 l/ha, growth stage 12-35, height 5-20 cm
Protocol: as §1, §2, §9, §10, §11, §12, §13

[9] = test system: Euphorbia heterophylla (EPHHL); experiment: Post-emergence application in field trials, EPHHL; conditions: 43 DAT, water volume 200 l/ha, growth stage 16-18, height 10-15 cm
Protocol: as §1, §2, §9, §10, §11
(§14) In the following experiments, the herbicidal activity for the individual herbicidal compositions (solo and mixture applications) was assessed at the indicated days after treatment (DAT). […]

Hordeum vulgare (HORVS) = experiment: Post-emergence application in field trials, HORVS; conditions: water volume 100 l/ha, pre plant burndown, 18 g ai/ha
Protocol: as §1, §2, §9, §10, §11, §12, §13

Setaria italica (SETIT) = experiment: Post-emergence application in field trials, SETIT; conditions: 22 DAT, water volume 200 l/ha, growth stage 21-31
Protocol: as §1, §2, §9, §10, §11, §14

[10] = test system: Brachiaria decumbens (BRADC); experiment: Post-emergence application in field trials, BRADC; conditions: 3 DAT, water volume 200 l/ha, growth stage 21-31, height 3-20 cm
Protocol: as §1, §2, §9, §10, §11, §14

[11] = test system: Erigeron canadensis (ERICA); experiment: Post-emergence application in field trials, ERICA; conditions: 22 DAT; water volume 200 l/ha; growth stage 15-20; 25 g ai/ha
Protocol: as §1, §2, §9, §10, §11, §14

Kochia scoparia (KCHSC) = experiment: Post-emergence application in field trials, KCHSC; conditions: 28 DAT; water volume 100 l/ha; pre plant burndown; growth stage 11-16; height 1-9 cm; 18 g ai/ha
Protocol: as §1, §2, §9, §10, §11, §14

[12] = 20 DAT, growth stage 21, 0.3 g ai/ha
[13] = 20 DAT, growth stage 14, 0.3 g ai/ha
[14] = 28 DAT, growth stage 21-24, height 15-37 cm
[15] = 29 DAT, growth stage 15-24, height 25-45 cm

## CCOC(=O)COc1ccccc1Oc1nc(-n2c(=O)cc(C(F)(F)F)n(C)c2=O)c(F)cc1Cl [A-1, ethyl 2-[2-[[3-chloro-5-fluoro-6-[3-methyl-2,6-dioxo-4-(trifluoromethyl)pyrimidin-1-yl]-2-pyridyl]oxy]phenoxy]acetate]
[1]; 6 DAT, GS 21, A-1 0.3 g ai/ha
  % Herbicidal activity: 65%
[1]; 20 DAT, GS 21, A-1 0.3 g ai/ha
  % Herbicidal activity: 45%
[1]; [12]
  % Herbicidal activity: 45%
[2]; 7 DAT, A-1 0.4 g ai/ha
  % Herbicidal activity: 40%
[2]; 20 DAT, A-1 0.2 g ai/ha
  % Herbicidal activity: 0%
Setaria faberi (SETFA); 7 DAT, A-1 0.3 g ai/ha
  % Herbicidal activity: 55%
Setaria faberi (SETFA); 7 DAT, A-1 0.5 g ai/ha
  % Herbicidal activity: 80%
Setaria faberi (SETFA); 20 DAT, A-1 0.3 g ai/ha
  % Herbicidal activity: 80%
Setaria viridis (SETVI); 7 DAT, GS 14, A-1 0.2 g ai/ha
  % Herbicidal activity: 30%
Setaria viridis (SETVI); 7 DAT, GS 14, A-1 0.3 g ai/ha
  % Herbicidal activity: 30%
Setaria viridis (SETVI); 7 DAT, GS 14, A-1 0.4 g ai/ha
  % Herbicidal activity: 40%
Setaria viridis (SETVI); 20 DAT, GS 14, A-1 0.3 g ai/ha
  % Herbicidal activity: 15%
Setaria viridis (SETVI); [13]
  % Herbicidal activity: 15%
[3]; 7 DAT, B-1 formulated as 500 g/l, GS 14, A-1 2 g ai/ha
  % Herbicidal activity: 80%
[3]; 20 DAT, B-1 formulated as 500 g/l, GS 14, A-1 2 g ai/ha
  % Herbicidal activity: 60%
[3]; 20 DAT, GS 14, A-1 0.2 g ai/ha
  % Herbicidal activity: 10%
[3]; 20 DAT, GS 14, A-1 0.3 g ai/ha
  % Herbicidal activity: 10%
[3]; [13]
  % Herbicidal activity: 10%
[4]; A-1 0.2 g ai/ha
  % Herbicidal activity: 10%
[5]; GS 13, A-1 0.3 g ai/ha
  % Herbicidal activity: 10%
[5]; growth stage 13, 0.3 g ai/ha
  % Herbicidal activity: 10%
[6]; A-1 12.5 g ai/ha
  % Herbicidal activity: 70%
[6]; A-1 25 g ai/ha
  % Herbicidal activity: 85%
[7]; 20 g ai/ha
  % Herbicidal activity: 75%
[7]; 30 g ai/ha
  % Herbicidal activity: 82%
[8]; 20 g ai/ha
  % Herbicidal activity: 58%
[8]; 30 g ai/ha
  % Herbicidal activity: 73%
[9]; 20 g ai/ha
  % Herbicidal activity: 73%
Hordeum vulgare (HORVS); [14]
  % Herbicidal activity: 89%
Hordeum vulgare (HORVS); [15]
  % Herbicidal activity: 73%
Setaria italica (SETIT); 30 g ai/ha
  % Herbicidal activity: 88%
[10]; 20 g ai/ha
  % Herbicidal activity: 77%
[11]
  % Herbicidal activity: 70%
Kochia scoparia (KCHSC)
  % Herbicidal activity: 57%

## C#CCN1C(=O)C(F)(F)Oc2cc(F)c(-n3c(=O)n(C)c(=S)n(C)c3=O)cc21 [B-1, trifludimoxazin]
[1]; 6 DAT, GS 21, B-1 0.3 g ai/ha
  % Herbicidal activity: 45%
[1]; 20 DAT, GS 21, B-1 0.3 g ai/ha
  % Herbicidal activity: 0%
[1]; 20 DAT, GS 21, B-1 0.9 g ai/ha
  % Herbicidal activity: 15%
[1]; [12]
  % Herbicidal activity: 0%
[2]; 7 DAT, B-1 0.8 g ai/ha
  % Herbicidal activity: 40%
[2]; 20 DAT, B-1 1.1 g ai/ha
  % Herbicidal activity: 60%
Setaria faberi (SETFA); 7 DAT, B-1 0.9 g ai/ha
  % Herbicidal activity: 45%
Setaria faberi (SETFA); 20 DAT, B-1 0.3 g ai/ha
  % Herbicidal activity: 15%
Setaria faberi (SETFA); 20 DAT, B-1 0.9 g ai/ha
  % Herbicidal activity: 70%
Setaria viridis (SETVI); 7 DAT, GS 14, B-1 0.3 g ai/ha
  % Herbicidal activity: 35%
Setaria viridis (SETVI); 7 DAT, GS 14, B-1 0.8 g ai/ha
  % Herbicidal activity: 45%
Setaria viridis (SETVI); 7 DAT, GS 14, B-1 0.9 g ai/ha
  % Herbicidal activity: 55%
Setaria viridis (SETVI); 7 DAT, GS 14, B-1 1 g ai/ha
  % Herbicidal activity: 60%
Setaria viridis (SETVI); 20 DAT, GS 14, B-1 0.3 g ai/ha
  % Herbicidal activity: 10%
Setaria viridis (SETVI); 20 DAT, GS 14, B-1 0.9 g ai/ha
  % Herbicidal activity: 70%
Setaria viridis (SETVI); [13]
  % Herbicidal activity: 10%
[3]; 7 DAT, B-1 formulated as 500 g/l, GS 14, B-1 1 g ai/ha
  % Herbicidal activity: 15%
[3]; 7 DAT, B-1 formulated as 500 g/l, GS 14, B-1 2 g ai/ha
  % Herbicidal activity: 35%
[3]; 20 DAT, B-1 formulated as 500 g/l, GS 14, B-1 2 g ai/ha
  % Herbicidal activity: 30%
[3]; 20 DAT, GS 14, B-1 0.9 g ai/ha
  % Herbicidal activity: 65%
[3]; 20 DAT, GS 14, B-1 1.1 g ai/ha
  % Herbicidal activity: 65%
[3]; [13]
  % Herbicidal activity: 10%
[4]; B-1 1.1 g ai/ha
  % Herbicidal activity: 40%
[5]; growth stage 13, 0.9 g ai/ha
  % Herbicidal activity: 15%
[6]; B-1 12.5 g ai/ha
  % Herbicidal activity: 20%
[7]; 12.5 g ai/ha
  % Herbicidal activity: 68%
[8]; 12.5 g ai/ha
  % Herbicidal activity: 48%
[9]; 12.5 g ai/ha
  % Herbicidal activity: 60%
Hordeum vulgare (HORVS); [14]
  % Herbicidal activity: 0%
Hordeum vulgare (HORVS); [15]
  % Herbicidal activity: 0%
Setaria italica (SETIT); 12.5 g ai/ha
  % Herbicidal activity: 27%
[10]; 12.5 g ai/ha
  % Herbicidal activity: 43%
[11]
  % Herbicidal activity: 27%
Kochia scoparia (KCHSC)
  % Herbicidal activity: 68%
